Ki data for 26 compounds are collected here from US20230129359A1, “MUSCARINIC RECEPTOR 4 ANTAGONISTS AND METHODS OF USE” (Neurocrine Biosciences, Inc., priority 2020, published 2023).

pKi: −log10 of the molar value.

The target of the test is T1, human M4 receptor (Homo sapiens, UniProt P08173).
T1 construct: expressed in transfected cells; host or cells: CHO cells
T1 sequence (P08173 1-479): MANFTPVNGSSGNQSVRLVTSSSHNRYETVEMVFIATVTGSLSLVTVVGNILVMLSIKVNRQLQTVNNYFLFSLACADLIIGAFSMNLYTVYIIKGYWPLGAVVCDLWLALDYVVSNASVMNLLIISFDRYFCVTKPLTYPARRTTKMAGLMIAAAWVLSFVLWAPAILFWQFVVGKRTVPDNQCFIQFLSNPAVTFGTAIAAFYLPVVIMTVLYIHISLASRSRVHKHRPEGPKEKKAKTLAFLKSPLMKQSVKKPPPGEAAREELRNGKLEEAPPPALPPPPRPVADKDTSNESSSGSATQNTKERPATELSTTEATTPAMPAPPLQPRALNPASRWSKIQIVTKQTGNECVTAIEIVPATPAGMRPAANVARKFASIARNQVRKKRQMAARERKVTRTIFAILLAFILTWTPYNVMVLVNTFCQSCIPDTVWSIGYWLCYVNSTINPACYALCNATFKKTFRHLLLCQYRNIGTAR
In words: Radioligand ([3H]N-methylscopolamine) binding assay, membranes from CHO cells expressing human M4 receptor. To be noted: Ki against human M4 receptor; membranes from CHO cells; tritiated N-methylscopolamine 1.5 nM; read-out: K. The method, boiled down: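 Competition binding used CHO-cell membranes expressing human M4 with 1.5 nM [3H]N-methylscopolamine and twelve compound concentrations ([…]). Incubation was 90 minutes at 37 °C in 50 mM HEPES, 100 mM NaCl, 5 mM MgCl2, 1 mM EDTA, pH 7.4. Bound ligand was collected by filtration onto PEI-treated glass fibre for Ki.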
With `C[C@@H]1CN(c2ncc(C(F)(F)F)cn2)CCN1C(=O)OCC1CC2(C1)CN(Cc1ccccc1)C2` [Compound 133, {2-benzyl-2-azaspiro[3.3]heptan-6-yl}methyl (2R)-2-methyl-4-[5-(trifluoromethyl)pyrimidin-2-yl]piperazine-1-carboxylate], the pKi is 7.00 to 8.00.

As to `C[C@@H]1CN(c2cnc(C(F)(F)F)cn2)CCN1C(=O)NC1CC2(C1)CN(Cc1ccc(F)cc1)C2` [Compound 270, (2R)-N-{2-[(4-fluorophenyl)methyl]-2-azaspiro[3.3]heptan-6-yl}-2-methyl-4-[5-(trifluoromethyl)pyrazin-2-yl]piperazine-1-carboxamide], the pKi was 7.00 to 8.00.

For `C[C@@H]1CN(c2ccc(C(F)(F)F)cc2)[C@@H](C)CN1C(=O)OC1CC2(C1)CN(Cc1ccccc1)C2` [Compound 527, 2-benzyl-2-azaspiro[3.3]heptan-6-yl (2R,5S)-2,5-dimethyl-4-[4-(trifluoromethyl)phenyl]pipera-zine-1-carboxylate], the pKi was over 8.00.

Take `CC(C)c1cnc(N2C[C@@H](C)N(C(=O)OC3CC4(C3)CN(Cc3ccccc3)C4)[C@@H](C)C2)nc1` [Compound 505, 2-benzyl-2-azaspiro[3.3]heptan-6-yl (2R,6S)-2,6-dimethyl-4-[5-(rpopan-2-yl)pyrimidin-2-yl]piperazine-1-carboxylate]: the pKi was over 8.00.

`C[C@@H]1CN(c2cnc(C(F)(F)F)cn2)C[C@@H](C)N1C(=O)OC1(C)CC2(CN(Cc3ccccc3)C2)C1` [Compound 356, 2-benzyl-6-methyl-2-azaspiro[3.3]heptan-6-yl (2R,6R)-2,6-dimethyl-4-[5-(trifluoromethyl)pyrazin-2-yl]piperazine-1-carboxylate]: the pKi is 7.00 to 8.00.

For `C[C@@H]1CN(c2cnc(C(F)(F)F)cn2)C[C@H](C)N1C(=O)OC1CC2(C1)CN(Cc1ccc(F)cc1)C2` [Compound 399, 2-[(4-fluorophenyl)methyl]-2-azaspiro[3.3]heptan-6-yl (2R,6S)-2,6-dimethyl-4-[5-(trifluoromethyl)pyrazin-2-yl]piperazine-1-carboxylate], the pKi was 7.00 to 8.00.

For `CC(c1ccccc1)N1CC2(CC(NC(=O)N3[C@H](C)CN(c4ncc(C(F)(F)F)cn4)C[C@@H]3C)C2)C1` (stereo partly drawn) [Compound 334, (2R,6S)-2,6-dimethyl-N-[2-(1-phenylethyl)-2-azaspiro[3.3]heptan-6-yl]-4-[5-(trifluoromethyl)pyrimidin-2-yl]piperazine-1-carboxamide], the pKi is over 8.00.

For the compound `C[C@@H]1CN(c2ncc(C(F)(F)F)cn2)CCN1C(=O)NC1CC2(C1)CN(Cc1ccc(F)cc1)C2` [Compound 266, (2R)-N-{2-[(4-fluorophenyl)methyl]-2-azaspiro[3.3]heptan-6-yl}-2-methyl-4-[5-(trifluoromethyl)pyrimidin-2-yl]piperazine-1-carboxamide], the pKi was 6.00 to 7.00.

For the compound `C[C@@H]1CN(c2nc3ccccc3s2)CCN1C(=O)NC1CC2(C1)CN(Cc1ccccc1)C2` [Compound 245, (2R)-4-(1,3-benzothiazol-2-yl)-N-{2-benzyl-2-azaspiro[3.3]heptan-6-yl}-2-methylpiperazine-1-carboxamide], the pKi was 7.00 to 8.00.

In the case of `C[C@@H]1CN(c2cnc3cc(C(F)(F)F)ccc3n2)C[C@H](C)N1C(=O)NC1CC2(C1)CN(Cc1ccccc1)C2` [Compound 235, (2R,6S)-N-{2-benzyl-2-azaspiro[3.3]heptan-6-yl}-2,6-dimethyl-4-[6-(trifluoromethyl)quinoxalin-2-yl]piperazine-1-carboxamide], the pKi was 7.00 to 8.00.

On to `C[C@@H]1CN(c2ncc(C(F)(F)F)cn2)CCN1C(=O)OC1(C(F)F)CC2(CN(Cc3ccccc3)C2)C1` [Compound 349, 2-benzyl-6-(difluoromethyl)-2-azaspiro[3.3]heptan-6-yl (2R)-2-methyl-4-[5-(trifluoromethyl)pyrimidin-2-yl]piperazine-1-carboxylate], for which the pKi was 7.00 to 8.00.

As for `C[C@@H]1CN(c2cnc(OC(F)(F)F)cn2)C[C@H](C)N1C(=O)OC1CC2(C1)CN(Cc1ccccc1)C2` [Compound 202, 2-benzyl-2-azaspiro[3.3]heptan-6-yl (2R,6S)-2,6-dimethyl-4-[5-(trifluoromethoxy)pyrazin-2-yl]piperazine-1-carboxylate], the pKi is over 8.00.

Take `CC(C)c1ccc(CN2CC3(CC(NC(=O)N4[C@H](C)CN(c5ncc(C(F)(F)F)cn5)C[C@@H]4C)C3)C2)cc1` [Compound 316, (2R,6S)-2,6-dimethyl-N-(2-{[4-(propan-2-yl)phenyl]methyl}-2-azaspiro[3.3]heptan-6-yl)-4-[5-(trifluroomethyl)pyrimidin-2-yl]piperazine-1-carboxamide]: the pKi was 7.00 to 8.00.

In the case of `COc1ccc2nc(N3C[C@@H](C)N(C(=O)NC4CC5(C4)CN(Cc4ccccc4)C5)[C@H](C)C3)cnc2c1` [Compound 219, (2R,6R)-N-{2-benzyl-2-azaspiro[3.3]heptan-6-yl}-4-(6-methoxyquinoxalin-2-yl)-2,6-dimethylpiperazine-1-carboxamide], the pKi is 7.00 to 8.00.

As for `C[C@@H]1CN(c2nc3cc(F)ccc3o2)C[C@H](C)N1C(=O)OC1CC2(C1)CN(Cc1ccccc1)C2` [Compound 441, 2-benzyl-2-azaspiro[3.3]heptan-6-yl (2R,6S)-4-(5-fluoro-1,3-benzoxazol-2-yl)-2,6-dimethylpiperazine-1-carboxylate], the pKi was 7.00 to 8.00.

With `C[C@@H]1CN(c2ncc(C(F)(F)F)cn2)C[C@@H](C)N1C(=O)OC1CC2(C1)CN(CC(C)(C)C)C2` [Compound 146, 2-(2,2-dimethylpropyl)-2-azaspiro[3.3]heptan-6-yl (2R,6R)-2,6-dimethyl-4-[5-(trifluoromethyl)pyrimidin-2-yl]piperazine-1-carboxylate], the pKi was 6.00 to 7.00.

As for `COc1ccc2nc(N3C[C@@H](C)N(C(=O)OC4CC5(C4)CN(Cc4ccccc4)C5)C[C@@H]3C)cnc2c1` [Compound 173, 2-benzyl-2-azaspiro[3.3]heptan-6-yl (2R,5S)-4-(6-methoxyquinoxalin-2-yl)-2,5-dimethylpiperazine-1-carboxylate], the pKi was 7.00 to 8.00.

For the compound `C[C@@H]1CN(c2nc3cc(C(F)(F)F)cnc3s2)[C@@H](C)CN1C(=O)OC1CC2(C1)CN(Cc1ccccc1)C2` [Compound 367, 2-benzyl-2-azaspiro[3.3]heptan-6-yl (2R,5S)-2,5-dimethyl-4-[6-(trifluoromethyl)-[1,3]thiazolo[4,3-b]pyridin-2-yl]piperazine-1-carboxylate], the pKi was over 8.00.

Take `N#Cc1cc(C(F)(F)F)ccc1N1CCN(C(=O)OC2CC3(C2)CN(Cc2ccccc2)C3)CC1` [Compound 126, 2-benzyl-2-azaspiro[3.3]heptan-6-yl 4-[2-cyano-4-(trifluoromethyl)phenyl]pipera-zine-1-carboxylate]: the pKi is 6.00 to 7.00.

Regarding `C[C@@H]1CN(c2ncc(C#N)cn2)[C@@H](C)CN1C(=O)OC1CC2(C1)CN(Cc1ccc(F)cc1)C2` [Compound 473, 2-[(4-fluorophenyl)methyl]-2-azaspiro[3.3]heptan-6-yl (2R,5S)-4-(5-cyanopyrimidin-2-yl)-2,5-dimethylpiperazine-1-carboxylate], the pKi is 7.00 to 8.00.

Regarding `C[C@@H]1CN(c2ncc(C(F)(F)F)cn2)[C@@H](C)CN1C(=O)NC1CC2(C1)CN(Cc1ccccc1)C2` [Compound 1, (2R,5S)—N-{2-Benzyl-2-azaspiro[3.3]heptan-6-yl}-2,5-dimethyl-4-[5-(trifluoromethyl)pyrimidin-2-yl]piperazine-1-carboxamide], the pKi was over 8.00.

Consider `C[C@@H]1CN(c2ncc(C(F)(F)F)cn2)C[C@H](C)N1C(=O)NC1CC2(C1)CN(CCc1ccccc1)C2` [Compound 311, (2R,6S)-2,6-dimethyl-N-[2-(2-phenylethyl)-2-azaspiro[3.3]heptan-6-yl]-4-[5-(trifluoromethyl)pyrimidin-2-yl]piperazine-1-carboxamide], for which the pKi was 6.00 to 7.00.

For the compound `C[C@@H]1CN(c2nc3cc(F)ccc3s2)[C@@H](C)CN1C(=O)OC1CC2(C1)CN(Cc1ccccc1)C2` [Compound 440, 2-benzyl-2-azaspiro[3.3]heptan-6-yl (2R,5S)-4-(5-fluoro-1,3-benzothiazol-2-yl)-2,5-dimethylpiperazine-1-carboxylate], the pKi is over 8.00.

As to `C[C@@H]1CN(c2cnc(OC(F)(F)F)cn2)[C@@H](C)CN1C(=O)OC1CC2(C1)CN(Cc1ccccc1)C2` [Compound 204, 2-benzyl-2-azaspiro[3.3]heptan-6-yl (2R,5S)-2,5-dimethyl-4-[5-(tifluoromethoxy)pyrazin-2-yl]piperazine-1-carboxylate], the pKi is over 8.00.

Turning to `C[C@@H]1CN(c2cnc(C(F)(F)F)cn2)C[C@H](C)N1C(=O)NC1CC2(C1)CN(Cc1ccc(F)cc1)C2` [Compound 267, (2R,6S)-N-{2-[(4-fluorophenyl)methyl]-2-azaspiro[3.3]heptan-6-yl}-2,6-dimethyl-4-[5-(trifluoromethyl)pyrazin-2-yl]piperazine-1-carboxamide], the pKi is 7.00 to 8.00.

Regarding `C[C@@H]1CN(c2nc3cc(C(F)(F)F)cnc3s2)C[C@@H](C)N1C(=O)OC1CC2(C1)CN(Cc1ccccc1)C2` [Compound 366, 2-benzyl-2-azaspiro[3.3]heptan-6-yl (2R,6R)-2,6-dimethyl-4-[6-(trifluoromethyl)-[1,3]thiazolo[5,4-b]pyridin-2-yl]piperazine-1-carboxylate], the pKi was 7.00 to 8.00.
